Where two headings read alike, the source gives them in different places. Peptide text beside a SMILES is read from it.

The test system of data set [1] is K. pneumoniae ESBL 344/17. The data set is described as follows: microbe, parasite or virus in culture. The format is cell-based, Klebsiella pneumoniae. The procedure:
(§1) In this regard the test plates were preincubated for 1 h at 37 °C with 0.1% bovine serum albumin (BSA) in distilled water before use. Bacteria were grown overnight at 37 °C with shaking in 2.1% Müller–Hinton broth (MHB), and then a small aliquot was transferred into the fresh portion of the same medium for another 2–3 h on the day of the experiment to provide us with the log phase bacterial suspension. Concentration of bacterial cells in suspension was evaluated based on absorbance at 620 nm and diluted down to 1 × 10^6 CFU/mL with MHB. Equal volumes of the prepared bacterial suspension in MHB and two-fold serial dilutions of the antimicrobials in 10 mM sodium phosphate (Na-P) buffer (pH 7.4) with 0.1% BSA were mixed and incubated overnight at 37 °C. The lowest concentration where no bacterial growth was observed the next day under visual examination was considered the minimal inhibitory concentration. The test was repeated at least three times, and the final MIC value was established as a median result. Each experiment was conducted in triplicates. Terasaki microplates (10 µL end volume, V-shaped bottom; Sarstedt, Nümbrecht, Germany) were used.

In another data set the test system is A. baumannii 7226/16. The data set is described as follows: microbe, parasite or virus in culture. The data set is classed as cell-based, Acinetobacter baumannii. The procedure: as §1
A further data set concerns P. aeruginosa MDR 522/17. The data set can be described thus: microbe, parasite or virus in culture. The data set is classed as cell-based, Pseudomonas aeruginosa. The procedure: as §1
The subject of the next data set is human erythrocytes. The format is cell-based. The procedure: Hemolytic properties of the test substances and their combinations were assessed as previously described. Whole human blood was collected from healthy donors by venipuncture into sterile EDTA-covered vacuum tubes, diluted 10 times with ice-cold phosphate-buffered saline (PBS) containing 4mM EDTA for the start, and then washed out twice with still ice-cold but anticoagulant-free PBS by a 10 min long centrifugation at 300× g and 4 °C to remove plasma and anticoagulant altogether. […] Samples were incubated for 30 min at 37 °C and then supplied with 90 µL of ice-cold PBS to stop further hemolysis. Remaining RBCs or their debris were precipitated by 4 min of centrifugation at 10,000× g and room temperature, and 100 µL of the supernatants was transferred to a 96-well clear flat-bottom test plate to spectrophotometrically detect hemoglobin released from the damaged RBCs. OD was measured at 540 nm—one of the hemoglobin absorbance maxima. The samples with 6 µL of pure PBS (with no potentially hemolytic agents) were used as a 0% lysis reference point. Experimental samples were compared with 0% lysis control by the Mann–Whitney U-test (p < 0.05) to identify statistically significant hemolytic action. In case the exact level of effect was of interest, the samples with 6 µL of 5% v/v Triton X-100 in PBS were also prepared to additionally obtain a 100% lysis reference point and calculate the percentage of hemolysis in test samples as hemolysis (%) = (ODsample − OD0% lysis)/(OD100% lysis − OD0% lysis) × 100%. At least three independent repeats were performed.
The absence “–” or presence “+” of a statistically significant difference compared with the intact control once exposed to the action of combinations of AMPs and antiseptics in concentrations equal to ½ or ¼ of their individual MECH was evaluated in a series of three independent experiments.

For another data set, the system named is E. coli ML-35p. The data set is described as follows: Bacterial membrane permeability assay (nitrocefin / ONPG). The format is cell-based, Escherichia coli. An excerpt: Monitoring the ability of the test substances or their combinations to affect bacterial membranes and enhance their permeability over time was organized using a method first proposed by Prof. Lehrer’s scientific group. The idea is based on utilizing special markers that cannot spontaneously penetrate bacterial membranes until those are damaged but would be readily processed by the bacteria’s own enzymes into products of different color once they enter. Then, the product can be spectrophotometrically detected, and the dynamics of its accumulation can be associated with the scale and swiftness of the inflicted membrane impairment. The specific bacterial strain E. coli ML-35p was designed for the procedure. It is a descendant of E. coli ML-35, first identified during lac operon studies, deficient in lactopermease but constitutively expressing cytoplasmic β-galactosidase, that was modified with a plasmid vector to additionally provide it with a periplasmic β-lactamase. These modifications create the basis for the mentioned membrane damage detection approach, as there are two specifically placed enzymes, but their lactose/galactose-based substrates cannot enter bacterial cells on their own in the absence of lactopermeases.
Nitrocefin (Calbiochem-Novabiochem, San Diego, CA, USA), which can be converted by β-lactamase into a pink-colored product detectable at 486 nm once it reaches the periplasmic space, was used as a marker of the outer membrane permeability, and ONPG (o-nitrophenyl-β-D-galactoside, Sigma, St. Louis, MO, USA), producing yellow-colored o-nitrophenyl detectable at 420 nm once hydrolyzed by β-galactosidase in the bacterial cytoplasm, was likewise used as an indicator of inner membrane damage.
An overnight culture of E. coli ML-35p grown at 37 °C in 3% Trypticase soy broth (TSB) was washed of the medium twice with 10 mM Na-P buffer (pH 7.4) via a 10 min long centrifugation at 600 g and 4 °C and diluted down in the same buffer to 1 × 10^8 CFU/mL stock concentration based on the optical density (OD) of the suspension at 620 nm (the formula being concentration [CFU/mL] = OD620 × 2.5 × 10^8). The stock was preferably used immediately or kept at 4ᵒC for no more than 1 h. Experiments were carried out in 96-well clear flat-bottom plates. The 100 µL samples containing antimicrobials or their combinations in desired concentrations, 10 mM Na-P buffer (pH 7.4), 100 mM NaCl, 20 μM of nitrocefin or 2.5 mM of ONPG, and bacteria in a final concentration of 2.5 × 10^7 CFU/mL were made in duplicates. Controls included no antimicrobial substances. Bacterial suspension was the last component and was added just before the start of the measurement. OD values at the wavelengths of 420 and 486 nm were collected once per minute for 1–2 h using SpectraMax 250 Microplate Spectrophotometer (Molecular Devices, San Jose, CA, USA); samples were maintained at 37 °C with 5 s of shaking before each read.

The mark [2] stands for this setting: intact bacteria and bacteria lysed by 4×MIC of PG-1.
[3] abbreviates: antiseptics and surfactants, MHB, overnight 37 °C, median of 3–4 independent experiments, prontosan as polyhexanide.
The mark [4] stands for this setting: antiseptics and surfactants, 2.5% v/v RBC in PBS, 30 min, 37 °C, median of 3 independent experiments, prontosan as polyhexanide.

On to `CC[C@H](C)[C@H](NC(=O)[C@H](CCCNC(=N)N)NC(=O)[C@@H](NC(=O)[C@@H]1CCCN1C(=O)[C@@H]1CCCN1C(=O)[C@H](CCCNC(=N)N)NC(=O)[C@H](CCCNC(=N)N)NC(=O)[C@H](Cc1ccccc1)NC(=O)[C@@H]1CCCN1C(=O)[C@H](CC(C)C)NC(=O)[C@H](CCCNC(=N)N)NC(=O)[C@H](Cc1ccccc1)NC(=O)[C@@H](N)CCCNC(=N)N)[C@@H](C)CC)C(=O)N[C@@H](Cc1c[nH]cn1)C(=O)N1CCC[C@H]1C(=O)N1CCC[C@H]1C(=O)N1CCC[C@H]1C(=O)N[C@@H](Cc1ccccc1)C(=O)N[C@@H](Cc1ccc(O)cc1)C(=O)N1CCC[C@H]1C(=O)N1CCC[C@H]1C(=O)N[C@@H](Cc1ccccc1)C(=O)N[C@@H](CCCNC(=N)N)C(=O)N[C@@H](CCCNC(=N)N)C(=O)N[C@@H](Cc1ccccc1)C(=O)N[C@@H](CC(C)C)C(=O)O` [ChBac3.4] (H-RFRLPFRRPPIRIHPPPFYPPFRRFL-OH; N-terminus assumed), for which the MIC in data set [1] (ESBL 344/17, 1 h) is 3.1 µM; with A. baumannii 7226/16 (7226/16, 1 h) it was 6.2 µM; in the data set on P. aeruginosa MDR 522/17 (MDR 522/17, 1 h) it was 6.2 µM.

In the case of `CC(C)C[C@H](NC(=O)[C@H](CCCNC(=N)N)NC(=O)CNC(=O)CNC(=O)[C@@H](N)CCCNC(=N)N)C(=O)N[C@H]1CSSC[C@@H](C(=O)N[C@H](C(=O)NCC(=O)N[C@@H](CCCNC(=N)N)C(N)=O)C(C)C)NC(=O)[C@H](C(C)C)NC(=O)[C@@H]2CSSC[C@H](NC(=O)[C@H](Cc3ccc(O)cc3)NC1=O)C(=O)N[C@@H](CCCNC(=N)N)C(=O)N[C@@H](CCCNC(=N)N)C(=O)N[C@@H](CCCNC(=N)N)C(=O)N[C@@H](Cc1ccccc1)C(=O)N2` [PG-1, protegrin 1], the MIC stood at 3.1 µM in data set [1] (ESBL 344/17, 1 h); 6.2 µM against A. baumannii 7226/16 (7226/16, 1 h); 6.2 µM against P. aeruginosa MDR 522/17 (MDR 522/17, 1 h). In the data set with human erythrocytes, the “MECH of hemolysis of human erythrocytes” value turned out to be 0.5 µM.

For `CC(O)(P(=O)(O)O)P(=O)(O)O` [Etidronic acid], the “Interference with ONPG processing by cytoplasmic β-galactosidase” value in the data set with E. coli ML-35p (setting [2]) is reported as “fully blocked the processing of ONPG”. Moreover, the “Interference with nitrocefin degradation by bacterial β-lactamase” value with E. coli ML-35p (setting [2]) is “prevents said enzyme from splitting nitrocefin”. In addition, the MIC in data set [1] (Klebsiella pneumoniae, ESBL344/17, antiseptics and surfactants, MHB, overnight 37 °C, median of 3–4 independent experiments, prontosan as polyhexanide, read-out: MIC) turned out to be 50 mg/mL; in the data set on A. baumannii 7226/16 (Acinetobacter baumannii, 7226/16, antiseptics and surfactants, MHB, overnight 37 °C, median of 3–4 independent experiments, prontosan as polyhexanide, read-out: MIC) it was 12.5 mg/mL; in the data set with P. aeruginosa MDR 522/17 (Pseudomonas aeruginosa, MDR522/17, antiseptics and surfactants, MHB, overnight 37 °C, median of 3–4 independent experiments, prontosan as polyhexanide, read-out: MIC) it was 25 mg/mL. Also, the “MECH of hemolysis of human erythrocytes” value in the data set with human erythrocytes is on record as 5000 µg/mL.

Turning to `[O-][n+]1c(CO)c(CO)[n+]([O-])c2ccccc21` [Dioxydin], in the data set on E. coli ML-35p (¼ MIC AMP + ¼ MIC antiseptic, poviargolum: outer membrane only, data not shown), the “Effect on the membranolytic action of AMPs” value is recorded as “did not cause significant changes in the dynamics of the membranolytic action of AMPs”. In addition, the “Effect on permeability of bacterial membranes for chromogenic markers, substance alone” value in the data set on E. coli ML-35p (¼ and ½ MIC, nitrocefin (outer) and ONPG (inner membrane), 10 mM Na-P buffer pH 7.4, 100 mM NaCl, 37 °C) is listed as “did not significantly increase the permeability of bacterial membranes”. The MIC in data set [1] (setting [3]) came to 0.0156 mg/mL; in the data set with A. baumannii 7226/16 (setting [3]), 0.0312 mg/mL; in the data set on P. aeruginosa MDR 522/17 (setting [3]), 0.125 mg/mL. For the same compound, the MECH entry in the data set with human erythrocytes is “higher than 0.5 mg/mL”. Besides, the “MECH of hemolysis of human erythrocytes” value in the data set with human erythrocytes (setting [4]) is 500 µg/mL.

Regarding Cocamidopropyl betaine, in the data set with E. coli ML-35p (setting [2]), the “Interference with nitrocefin degradation by bacterial β-lactamase” value is listed as “block the degradation of nitrocephin by β-lactamase”. Also, the MIC in data set [1] (setting [3]) is 0.1562 mg/mL; with A. baumannii 7226/16 (setting [3]), 0.0781 mg/mL; against P. aeruginosa MDR 522/17 (setting [3]), >50,000 µg/mL. The “MECH of hemolysis of human erythrocytes” value with human erythrocytes (setting [4]) was 1 µg/mL.

Values taken from PMC9863607, “Combined Use of Antimicrobial Peptides with Antiseptics against Multidrug-Resistant Bacteria: Pros and Cons” (Pharmaceutics, 2023).
